From US8435978B2, “Substituted sulfonamide compounds” (Gruenenthal GmbH, priority 2006, dated 2013)

Legend:
human B1R receptor = biological target: T1, human B1R receptor (Homo sapiens, UniProt P46663); experiment: Functional study on the bradykinin receptor 1 (B1R), FLIPR Ca2+ assay, hB1R cells; format: cell-based; conditions: agonist Lys-Des-Arg9-bradykinin 0.5 nM, % inhibition compared with the maximum achievable inhibition; for B1R Antagonism, human [10 μM] % Inhibition: test substance 10 μM, hB1R CHO K1 cells; for inhibition at 10 µM: CHO-K1, test substance 10 μM, read-out: B1R Antagonism, human [10 μM] % Inhibition
T1 construct: host or cells: CHO K1 cells (Chinese hamster ovary), stably transfected
T1 sequence (P46663 1-353): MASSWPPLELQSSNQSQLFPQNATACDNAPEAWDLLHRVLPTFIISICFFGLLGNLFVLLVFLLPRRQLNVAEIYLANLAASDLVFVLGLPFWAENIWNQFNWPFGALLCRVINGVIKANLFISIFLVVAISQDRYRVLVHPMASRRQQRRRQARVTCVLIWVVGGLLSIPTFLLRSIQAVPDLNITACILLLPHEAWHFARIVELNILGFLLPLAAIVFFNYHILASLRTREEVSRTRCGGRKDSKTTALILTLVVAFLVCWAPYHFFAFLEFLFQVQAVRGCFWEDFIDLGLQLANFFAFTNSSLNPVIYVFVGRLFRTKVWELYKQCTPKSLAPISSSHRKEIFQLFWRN
In short: (§1)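 CHO K1 cells stably expressing human or rat B1R were loaded with Fluo-4 and read on a FLIPR (ex 488/em 540 nm, peak fluorescence). Test compounds at 10 μM were added first, then after 10 min agonist: Lys-Des-Arg9-bradykinin 0.5 nM for hB1R, Des-Arg9-bradykinin 100 nM for rB1R; % inhibition versus maximum inhibition.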

B1R receptor of the rat = biological target: T2, B1R receptor of the rat (Rattus norvegicus, UniProt P97583); experiment: Functional study on the bradykinin receptor 1 (B1R), FLIPR Ca2+ assay, rB1R cells; format: cell-based; conditions: agonist Des-Arg9-bradykinin 100 nM, % inhibition compared with the maximum achievable inhibition; for B1R Antagonism, rat [10 μM] % Inhibition: test substance 10 μM, rB1R CHO K1 cells; for inhibition at 10 µM: CHO-K1, test substance 10 μM, read-out: B1R Antagonism, rat [10 μM] % Inhibition
T2 construct: host or cells: CHO K1 cells (Chinese hamster ovary), stably transfected
T2 sequence (P97583 1-337): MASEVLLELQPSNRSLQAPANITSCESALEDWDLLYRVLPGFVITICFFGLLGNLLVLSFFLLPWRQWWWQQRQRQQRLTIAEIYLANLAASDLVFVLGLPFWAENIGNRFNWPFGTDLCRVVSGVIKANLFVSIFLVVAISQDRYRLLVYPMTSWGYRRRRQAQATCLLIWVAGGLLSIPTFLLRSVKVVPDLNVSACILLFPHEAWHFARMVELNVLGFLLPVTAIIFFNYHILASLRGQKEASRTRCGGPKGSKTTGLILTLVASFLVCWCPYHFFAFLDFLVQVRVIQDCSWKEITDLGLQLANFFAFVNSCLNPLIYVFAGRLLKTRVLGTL
In short: as §1

SMILES | B1R Antagonism, human [10 μM] % Inhibition (human B1R receptor) [%] | B1R Antagonism, rat [10 μM] % Inhibition (B1R receptor of the rat) [%] | inhibition at 10 µM (human B1R receptor) [%] | inhibition at 10 µM (B1R receptor of the rat) [%]
COc1cc(C)c(S(=O)(=O)N2CCCCC2COCC(=O)NCc2ccc(N3CCN(C)CC3)cc2)c(C)c1 (stereo not shown) [Example 3, 2-[1-(4-methoxy-2,6-dimethyl-phenylsulfonyl)-piperidin-2-ylmethoxy]-N-[4-(4-methyl-piperazin-1-yl)-benzyl]-acetamide] | 103.84 | 108.97 | – | –
COc1cc(C)c(S(=O)(=O)N2CCCCC2COCC(=O)N2CCN(C)CC2)c(C)c1 (stereo not shown) [Example 242, 2-((1-(4-methoxy-2,6-dimethylphenylsulfonyl)piperidin-2-yl)methoxy)-1-(4-methylpiperazin-1-yl)ethanone] | – | – | 102 | 88
O=C(COCC1CCCCN1S(=O)(=O)c1c(Cl)cccc1Cl)N1CCN(c2ccncc2)CC1 (stereo not shown) [Example 283, 2-((1-(2,6-dichlorophenylsulfonyl)piperidin-2-yl)methoxy)-1-(4-(pyridin-4-yl)piperazin-1-yl)ethanone] | – | – | 103 | 92.9
COc1cc(C)c(S(=O)(=O)N2CCCCC2COCC(=O)N2CCN(c3ncnc4ccsc34)CC2)c(C)c1 (stereo not shown) [Example 113, 2-((1-(4-methoxy-2,6-dimethylphenylsulfonyl)piperidin-2-yl)methoxy)-1-(4-(thieno[3,2-d]pyrimidin-4-yl)piperazin-1-yl)ethanone] | – | – | 99.2 | 97.1
COc1cc(C)c(S(=O)(=O)N2CCCCC2COCC(=O)N(C)C(CN2CCCC2)c2ccccc2)c(C)c1 (stereo not shown) [Example 241, 2-((1-(4-methoxy-2,6-dimethylphenylsulfonyl)piperidin-2-yl)methoxy)-N-methyl-N-(1-phenyl-2-(pyrrolidin-1-yl)ethyl)acetamide] | – | – | 104 | 99.3
COc1cc(C)c(S(=O)(=O)N2CCCCC2COCC(=O)N2CCC(NCC(c3cccnc3)N3CCOCC3)CC2)c(C)c1 (stereo not shown) [Example 136, 2-((1-(4-methoxy-2,6-dimethylphenylsulfonyl)piperidin-2-yl)methoxy)-1-(4-(2-morpholin-2-(pyridin-3-yl)ethylamino)piperidin-1-yl)ethanone] | 103.97 | 98.94 | – | –
O=C(COCC1Cc2ccccc2CN1S(=O)(=O)c1ccc(Cl)cc1Cl)N1CCCN(Cc2ccccc2)CC1 (stereo not shown) [Example 79, 1-(4-benzyl-[1,4]diazepan-1-yl)-2-[2-(2,4-dichloro-phenylsulfonyl)-1,2,3,4-tetra-hydro-isoquinolin-3-ylmethoxy]-ethanone] | – | – | 45.5 | 54.5
O=C(COCC1CCCCN1S(=O)(=O)c1ccc(Cl)c(Cl)c1)N1CCC(CCN2CCCCC2)CC1 (stereo not shown) [Example 20, 2-((1-(3,4-dichlorophenylsulfonyl)piperidin-2-yl)methoxy)-1-(4-(2-(piperidin-1-yl)-ethyl)piperidin-1-yl)ethanone] | – | – | 94.9 | 86.4
COc1cc(C)c(S(=O)(=O)N2CCCCC2COCC(=O)NCc2cccc(Oc3cnccn3)c2)c(C)c1 (stereo not shown) [Example 195, 2-((1-(4-methoxy-2,6-dimethylphenylsulfonyl)piperidin-2-yl)methoxy)-N-(3-(pyrazin-2-yloxy)benzyl)acetamide] | – | – | 85.1 | 98.8
O=C(COCC1Cc2ccccc2CN1S(=O)(=O)c1ccc(Cl)cc1Cl)Nc1cccc(N2CCOCC2)c1 (stereo not shown) [Example 265, 2-((2-(2,4-dichlorophenylsulfonyl)-1,2,3,4-tetrahydroisoquinolin-3-yl)methoxy)-N-(3-morpholinophenyl)acetamide] | – | – | 100 | 51.3
COc1cc(C)c(S(=O)(=O)N2CCCCC2COCC(=O)N2CCC(c3ccccn3)C2)c(C)c1 (stereo not shown) [Example 236, 2-((1-(4-methoxy-2,6-dimethylphenylsulfonyl)piperidin-2-yl)methoxy)-1-(3-(pyridin-2-yl)pyrrolidin-1-yl)ethanone] | – | – | 95.9 | 99.6
COc1cc(C)c(S(=O)(=O)N2CCCCC2COCC(=O)N2CCc3cc(N4CCN(C)CC4)ccc3C2)c(C)c1 (stereo not shown) [Example 215, 2-((1-(4-methoxy-2,6-dimethylphenylsulfonyl)piperidin-2-yl)methoxy)-1-(6-(4-methylpiperazin-1-yl)-3,4-dihydroisoquinolin-2(1H)-yl)ethanone] | – | – | 99.9 | 101
O=C(COCC1Cc2ccccc2CN1S(=O)(=O)c1ccccc1)Nc1cccc(N2CCOCC2)c1 (stereo not shown) [Example 264, N-(3-morpholinophenyl)-2-((2-(phenylsulfonyl)-1,2,3,4-tetrahydroisoquinolin-3-yl)methoxy)acetamide] | – | – | 103 | 31.7
O=C(COCC1CCCCN1S(=O)(=O)c1ccc(Cl)c(Cl)c1)N1CCN(CCN2CCCCC2)CC1 (stereo not shown) [Example 42, 2-((1-(3,4-dichlorophenylsulfonyl)piperidin-2-yl)methoxy)-1-(4-(2-(piperidin-1-yl)-ethyl)piperazin-1-yl)ethanone] | – | – | 70.6 | 57.9

Further lines, results first:

B1R Antagonism, human [10 μM] % Inhibition (human B1R receptor) [%] | B1R Antagonism, rat [10 μM] % Inhibition (B1R receptor of the rat) [%] | inhibition at 10 µM (human B1R receptor) [%] | inhibition at 10 µM (B1R receptor of the rat) [%] | SMILES
– | – | 27.5 | 76.3 | O=C(COCC1CCCCN1S(=O)(=O)c1c(Cl)cc(Cl)cc1Cl)NCc1ccc(N2CCOCC2)cc1 (stereo not shown) [Example 581, N-(4-morpholinobenzyl)-2-((1-(2,4,6-trichlorophenylsulfonyl)piperidin-2-yl)methoxy)acetamide]
– | – | 39.2 | 102 | COc1cc(C)c(S(=O)(=O)N2CCCCC2COCC(=O)Nc2cccc(N3CCOCC3)c2)c(C)c1 (stereo not shown) [Example 436, 2-((1-(4-methoxy-2,6-dimethylphenylsulfonyl)piperidin-2-yl)methoxy)-N-(3-morpholinophenyl)acetamide]
– | – | 93 | 102 | COc1cc(C)c(S(=O)(=O)N2CCCCC2COCC(=O)N2CCCC2CN2CCCCC2)c(C)c1 (stereo not shown) [Example 399, 2-((1-(4-methoxy-2,6-dimethylphenylsulfonyl)piperidin-2-yl)methoxy)-1-(2-(piperidin-1-ylmethyl)pyrrolidin-1-yl)ethanone]
– | – | 104 | 101 | O=C(COCC1CCCN1S(=O)(=O)c1c(Cl)cccc1Cl)N1CCN(CCc2ccccc2)CC1 (stereo not shown) [Example 326, 2-((1-(2,6-dichlorophenylsulfonyl)pyrrolidin-2-yl)methoxy)-1-(4-phenethylpiperazin-1-yl)ethanone]
– | – | 105 | 88.1 | O=C(COCC1CCCN1S(=O)(=O)c1c(Cl)cccc1Cl)NCC1CCCN(Cc2ccccc2)C1 (stereo not shown) [Example 323, N-((1-benzylpiperidin-3-yl)methyl)-2-((1-(2,6-dichlorophenylsulfonyl)pyrrolidin-2-yl)methoxy)acetamide]
29.73 | 87.56 | – | – | COc1ccc(S(=O)(=O)N2CCCCC2COCC(=O)Nc2ccc(NC(=O)CN3CCCCC3)c(C)c2)cc1 (stereo not shown) [Example 557, 2-((1-(4-methoxyphenylsulfonyl)piperidin-2-yl)methoxy)-N-(3-methyl-4-(2-(piperidin-1-yl)acetamideo)phenyl)acetamide]
– | – | 35.1 | 97.6 | CCN(CCCNC(=O)COCC1CCCCN1S(=O)(=O)c1c(C)cc(OC)cc1C)c1ccccc1 (stereo not shown) [Example 424, N-(3-(ethyl(phenyl)amino)propyl)-2-((1-(4-methoxy-2,6-dimethylphenylsulfonyl)piperidin-2-yl)methoxy)acetamide]
– | – | 105 | 101 | COc1cc(C)c(S(=O)(=O)N2CCCCC2COCC(=O)N(C)[C@H]2CCN(Cc3ccccc3)C2)c(C)c1 (stereo partly drawn) [Example 364, N—((S)-1-benzylpyrrolidin-3-yl)-2-((1-(4-methoxy-2,6-dimethylphenylsulfonyl)piperidin-2-yl)methoxy)-N-methylacetamide]
– | – | 84.5 | 101 | COc1cc(C)c(S(=O)(=O)N2CCCC2COCC(=O)N2CCN(c3ccc(C(F)(F)F)cn3)CC2)c(C)c1 (stereo not shown) [Example 468, 2-((1-(4-methoxy-2,6-dimethylphenylsulfonyl)pyrrolidin-2-yl)methoxy)-1-(4-(5-(trifluoromethyl)pyridin-2-yl)piperazin-1-yl)ethanone]
